US8614218B2, “Fused bicyclic pyrimidines” (Bayer Intellectual Property GmbH, priority 2007, dated 2013)

What was measured:
Type in all cases: cell-based
phospho-Akt (Ser473) = assay: Cellular PI3K/Akt pathway assay (phospho-Akt ELISA); settings: Homo sapiens, MCF7 cells, β-Heregulin stimulated, 48 h incubation
Source text: Cellular PI3K/Akt Pathway Assay
In order to study the cellular activity of the compounds according to the present invention, an Enzyme Linked Immunosorbent Assay (ELISA)-based assay has been used specific phospho-AKT. The assay is based on a Sandwich ELISA kit (PathScan™ Phospho-Akt1 (Ser473); Cell Signaling, USA; #7160). The ELISA Kit detects endogenous levels of phosphorylated Akt protein. A phospho-Akt (Ser473) antibody (Cell Signaling, USA; #9271) has been coated onto the microwells. After incubation with cell lysates, the coated antibody captures the phosphorylated Akt protein. Following extensive washing, Akt1 monoclonal antibody (Cell Signaling, USA; #2967) is added to detect the captured phospho-Akt1 protein. HRP-linked anti-mouse antibody (HRP: horseradish peroxidase; Cell Signaling, USA; #7076) is then used to recognize the bound detection antibody. HRP substrate (=3,3′,5,5′-tetramethylbenzidine (TMB); Cell Signaling, USA; #7160) is added to develop colour. The magnitude of optical density for this developed color is proportional to the quantity of phosphorylated Akt protein.
MCF7 cells (ATCC HTB-22) are seeded into 96 well fate bottom plates at a density of 10000 cells/well. 24 hours after seeding, the cells are serum starved using low-serum medium (IMEM media including 0.1% charcoal treated FCS (FCS: fetal calf serum)). After 24 hours 1 μl each of the compound dilutions (test compounds were dissolved as 10 mM solutions in dimethylsulfoxide (DMSO) and subsequently diluted) are added into each well of the 96 well plates and incubated for 48 h at 37° C. in a humidified atmosphere containing 5% CO2. To stimulate Akt phosphorylation, β-Heregulin (20 ng/ml β-HRG) is added in parallel to the compounds. Wells containing unstimulated control cells (no β-Heregulin stimulation) are incubated with or without the diluted compound. Wells containing untreated control cells (no compound) are filled with medium containing 0.5% v:v DMSO and are or are not stimulated with β-Heregulin.
Cells are harvested and lysed with brief sonification in 1× cell lysis buffer (20 mM Tris (pH7.5), 150 mM NaCl, 1 mM ethylene diaminetetraacetate (EDTA), 1 mM ethylene glycolbis(2-aminoethyl)-N,N,N′,N′-tetraacetic acid (EGTA), 1 vol % Triton X-100, 2.5 mM sodium pyrophosphate, 1 mM β-glycerolphosphate, 1 mM Na3VO4, 1 μg/ml leupeptin). The lysate is centrifuged for 10 min. at 4° C. and the supernatant is transferred to a new tube. 100 μl of sample diluent (0.1 vol % Tween-20, 0.1 vol % sodium azide in phosphate buffered saline (PBS)) are added to a microcentrifuge tube and 100 μl of cell lysate are transferred into the tube and vortexed. 100 μl of each diluted cell lysate are added to the appropriate ELISA well, and incubated overnight at 4° C. The plates are washed 4 times with 1× wash buffer (1 vol % tween-20, 0.33 vol % thymol, in PBS). Next 100 μl of detection antibody (Akt1 (2H10) monoclonal detection antibody; Cell Signaling, USA; #2967) are added to each well and incubation continued for 1 h at 37° C. The washing procedure is repeated between each step. 100 μl of secondary antibody (anti-mouse IgG HRP-linked antibody; Cell Signaling, USA; #7076) are added to each well and incubated for 30 min. at 37° C. Than, 100 μl of TMB substrate (0.05% 3,3′,5,5′ tetramethylbenzidine, 0.1% hydrogen peroxide, complex polypeptides in a buffered solution; Cell Signaling, USA; #7160) are added to each well and incubated for 30 min. at 25° C. Finally 100 μl of STOP solution (0.05 vol % α and β unsaturated carbonyl compound) are added to each well and the plate are shaked gently. The absorbance is measured at λ=450 nm (Wallac Victor2; Perkin Elmer, USA) within 30 min. after adding the STOP solution. The analysis of the data is performed using a statistical program (Excel; Microsoft, USA). Preferred compounds show an inhibitory activity towards Akt phosphorylation below 10 μM.

A549 cells = assay: Cellular proliferation/cytotoxicity assay (Alamar Blue), A549; settings: Homo sapiens, 72 h, Alamar Blue (Resazurin), read-out: Anti-proliterative/Cytotoxic activity (A549 cells)
Procedure: (§1) Cellular Proliferation/Cytotoxicity Assay:
(§2) The anti-proliferative activity of the compounds as described herein, is evaluated using the OvCAR3, HCT116 and A549 cell lines and the Alamar Blue (Resazurin) cell viability assay (O'Brien et al. Eur J Biochem 267, 5421-5426, 2000). Resazurin is reduced to the fluorescent resorufin by cellular dehydrogenase activity, correlating with viable, proliferating cells. Test compounds are dissolved as 10 mM solutions in DMSO and subsequently diluted. Cells like HCT116 or A549 cells were seeded into 96 well flat bottom plates at a density of 10000 cells/well (OvCAR3 cells), 1000 cells/well (HCT116 cells) or 2000 cells/well (A549 cells) in a volume of 200 μl/well. 24 hours after seeding, 1 μl each of the compound dilutions are added into each well of the 96 well plates. Each compound dilution is tested as at least as duplicates. Wells containing untreated control cells were filled with 200 μl DMEM (Dulbecco's Modified Eagle Medium) containing 0.5 vol % v:v DMSO. The cells are then incubated with the substances for 72 h at 37° C. in a humidified atmosphere containing 5 vol % CO2. To determine the viability of the cells, 20 μl of a Resazurin solution (90 mg/l) are added. After 4 h incubation at 37° C., the fluorescence is measured by extinction at λ=544 nm and an emission of λ=590 nm (Wallac Victor2; Perkin Elmer, USA). For the calculation of the cell viability, the emission value from untreated cells is set as 100% viability and the fluorescence intensity of treated cells are set in relation to the values of untreated cells. Viabilities are expressed as % values. The corresponding IC50 values of the compounds for cytotoxic activity are determined from the concentration-effect curves by means of non-linear regression. The analysis of the data is performed using a biostatistical program (GraphPad Prism, USA).
(§3) Representative IC50 values for anti-proliferative/cytotoxic potency determined in the aforementioned assay follow from the following table, in which the numbers of the compound correspond to the numbers of the examples.

OvCAR3 cells = assay: Cellular proliferation/cytotoxicity assay (Alamar Blue), OvCAR3; settings: Homo sapiens, OVCAR-3, 72 h, Alamar Blue (Resazurin), read-out: Anti-proliferative/Cytotoxic activity (OvCAR3 cells)
Procedure: as §1, §2, §3

Row | SMILES | IC50 (phospho-Akt (Ser473)) [µM] | IC50 (A549 cells) [µM] | IC50 (OvCAR3 cells) [µM]
1 | FC(F)(F)c1cn2cc(-c3ccccc3)c(-c3ccc(CN4CCC(c5n[nH]c(-c6ccccn6)n5)CC4)cc3)nc2n1 [Example 26, 6-phenyl-7-(4-{[4-(5-pyridin-2-yl-1H-1,2,4-triazol-3-yl)piperidin-1-yl]methyl}phenyl)-2-(trifluoromethyl)imidazo[1,2-a]pyrimidine] | < 1 | < 10 | 
2 | Cc1nc2nc(-c3ccc(CN4CCC(c5n[nH]c(-c6ccccn6)n5)CC4)cc3)c(-c3ccccc3)c(C)n2n1 [Example 39, 2,7-Dimethyl-6-phenyl-5-(4-{[4-(5-pyridin-2-yl-1H-1,2,4-triazol-3-yl)piperidin-1-yl]methyl}phenyl)[1,2,4]triazolo[1,5-a]pyrimidine] | < 1 | < 10 | 
3 | c1ccc(-c2nc(C3CCN(Cc4ccc(-c5nc6ccnn6cc5-c5ccsc5)cc4)CC3)n[nH]2)nc1 [Example 50, 5-(4-{[4-(5-Pyridin-2-yl-1H-1,2,4-triazol-3-yl)piperidin-1-yl]methyl}phenyl)-6-(3-thienyl)pyrazolo[1,5-a]pyrimidine] | < 1 | < 10 | 
4 | c1ccc(-c2cn3ccnc3nc2-c2ccc(CN3CCC(c4cc(-c5ccccn5)n[nH]4)CC3)cc2)cc1 [Example 5, 6-phenyl-7-(4-{[4-(3-pyridin-2-yl-pyrazol-5-yl)piperidin-1-yl]methyl}phenyl)imidazo[1,2-a]pyrimidine] |  | < 10 | < 10
5 | CCc1cn2cc(-c3ccccc3)c(-c3ccc(CN4CCC(c5n[nH]c(-c6ccccn6)n5)CC4)cc3)nc2n1 [Example 17, 2-ethyl-6-phenyl-7-(4-{[4-(5-pyridin-2-yl-1,2,4-triazol-3-yl)piperidin-1-yl]methyl}phenyl)imidazo[1,2-a]pyrimidine] |  | < 10 | < 10
6 | c1ccc(-c2cn3ccnc3nc2-c2ccc(CN3CCC(n4cnc(-c5ccccn5)c4)CC3)cc2)cc1 [Example 20, 6-phenyl-7-(4-{[4-(4-pyridin-2-yl-imidazol-1-yl)piperidin-1-yl]methyl}phenyl)imidazo[1,2-a]pyrimidine] |  | > 10 | < 10
7 | Brc1cnc2nc(-c3ccc(CN4CCC(c5n[nH]c(-c6ccccn6)n5)CC4)cc3)c(-c3ccccc3)cn12 [Example 11, 3-bromo-6-phenyl-7-(4-{[4-(5-pyridin-2-yl-1,2,4-triazol-3-yl)piperidin-1-yl]methyl}phenyl)imidazo[1,2-a]pyrimidine] |  | > 10 | < 10
8 | Cc1nc2nc(-c3ccc(CN4CCC(c5n[nH]c(-c6ncccn6)n5)CC4)cc3)c(-c3ccccc3)cn2n1 [Example 45, 2-Methyl-6-phenyl-5-(4-{[4-(5-pyrimidin-2-yl-1H-1,2,4-triazol-3-yl)piperidin-1-yl]methyl}phenyl)[1,2,4]triazolo[1,5-a]pyrimidine] | < 1 | > 10 | 
9 | CNc1c(-c2ccccc2)c(-c2ccc(CN3CCC(c4n[nH]c(-c5ccccn5)n4)CC3)cc2)nc2nccn12 [Example 10, N-methyl-6-phenyl-7-(4-{[4-(5-pyridin-2-yl-1,2,4-triazol-3-yl)piperidin-1-yl]methyl}phenyl)imidazo[1,2-a]pyrimidin-5-amine] |  | > 10 | < 10
10 | c1ccc(-c2cn3ccnc3nc2-c2ccc(CN3CCC(c4n[nH]c(-c5ccncc5)n4)CC3)cc2)cc1 [Example 6, 6-phenyl-7-(4-{[4-(5-pyridin-4-yl-1,2,4-triazol-3-yl)piperidin-1-yl]methyl}phenyl)imidazo[1,2-a]pyrimidine] |  | < 10 | < 10
11 | N#Cc1cnc2nc(-c3ccc(CN4CCC(c5n[nH]c(-c6ccccn6)n5)CC4)cc3)c(-c3ccccc3)cn12 [Example 8, 6-phenyl-7-(4-{[4-(5-pyridin-2-yl-1,2,4-triazol-3-yl)piperidin-1-yl]methyl}phenyl)imidazo[1,2-a]pyrimidine-3-carbonitrile] |  | > 10 | < 10
12 | Cc1cc2nc(-c3ccc(CN4CCC(c5n[nH]c(-c6ccccn6)n5)CC4)cc3)c(-c3ccccc3)c(C)n2n1 [Example 49, 2,7-Dimethyl-6-phenyl-5-(4-{[4-(5-pyridin-2-yl-1H-1,2,4-triazol-3-yl)piperidin-1-yl]methyl}phenyl)pyrazolo[1,5-a]pyrimidine] | < 1 | < 10 | 
13 | Cc1cnc2nc(-c3ccc(CN4CCC(c5n[nH]c(-c6ccccn6)n5)CC4)cc3)c(-c3ccccc3)cn12 [Example 14, 3-methyl-6-phenyl-7-(4-{[4-(5-pyridin-2-yl-1,2,4-triazol-3-yl)piperidin-1-yl]methyl}phenyl)imidazo[1,2-a]pyrimidine] |  | < 10 | < 10
